Patent US11896609B2, “Pharmaceutical composition for treating inflammatory diseases comprising germanium telluride nanosheets coated with polyvinylpyrrolidone” (Industry-Academic Cooperation Foundation, priority 2021, dated 2024)

Key:
[1] = IVIS fluorescence imaging biodistribution after oral administration; assay type: in vivo, mice; conditions: 5 mg/kg oral, IVIS at 1, 6 and 24 hours
Procedure: After GeTe-PVP NSs (5 mg/kg, 100 μl) or an ICG solution (5 mg/kg, 200 μl) were orally administered, the mice were subjected to laparotomy at 1, 6, and 24 hours, and the biodistribution of GeTe-PVP NSs and the ICG solution was photographed with an in vivo imaging system (IVIS). Furthermore, the stomach, intestine, liver, lungs, pancreas, heart, and kidneys were removed at each time to confirm their biodistribution by fluorescence imaging with IVIS and quantify the amounts of GeTe-PVP NSs and ICG accumulated in each organ by FL intensity.

[2] = system: DSS-induced colitis model; assay: DSS-induced inflammatory bowel disease (colitis) model; assay type: in vivo, C57BL/6 mice
Procedure: 7- to 8-week-old male C57BL/6 mice (Orient Bio Inc.; Seongnam, Korea) were used for the experiments. Colitis was induced by allowing an acute inflammatory bowel disease model to ingest drinking water to which 2% dextran sodium sulfate (DSS; MP Biochemical, Irvine, Ca, USA) was added for 7 days. A normal control group was allowed to ingest the same amount of water for the same time (FIG. 19).
The experimental groups were classified into the following four groups (Table 1): a normal control group (Group 1, n=8), a group in which colitis is induced by DSS (Group 2, n=8), a group in which sulfasalazine (SAZ), which is a common therapeutic agent, was administered to a DSS-induced colitis model (Group 3, n=8, SAZ=200 mg/kg/day), and a group in which GeTe-PVP NSs were administered to a DSS-induced colitis model (Group 4, n=8, GeTe-PVP NS=5 mg/kg/day).
Body weight changes and the disease activity index (DAI) of mice were confirmed every day for 7 days. Each score of weight loss index (0 to 4; FIG. 20A), rectal bleeding observed with the naked eye in the stool or anus (0 to 3; FIG. 20C), and stool consistency (0 to 3; FIG. 20B) is summed to evaluate the disease activity index on a 10-point scale (FIG. 20D). [Stevceva L, Pavli P, Husband A, Ramsay A, Doe WF. Dextran sulphate sodium-induced colitis is ameliorated in interleukin 4 deficient mice. Genes Immun 2001; 2:309-316.] […]

Structure (SMILES)	time after administration until which a large amount remained in the intestine (FL intensity) [1]	disease activity index (DAI) compared to DSS group (Group 2) ([2]; DSS colitis mice, SAZ 200 mg/kg/day, GeTe-PVP NS 5 mg/kg/day)	inflammatory findings (H&E, PAS staining) ([2]; proximal and distal regions of excised intestine)
CC1(C)C(/C=C/C=C/C=C/C=C2\N(CCCCS(=O)(=O)O)c3ccc4ccccc4c3C2(C)C)=[N+](CCCCS(=O)(=O)[O-])c2ccc3ccccc3c21 [ICG solution, Indocyanine green]	≤ 1 h	–	–
O=C(O)c1cc(/N=N/c2ccc(S(=O)(=O)Nc3ccccn3)cc2)ccc1O [sulfasalazine]	–	lower DAI compared to Group 2	many inflammatory findings were not found
